Measured values from patent US20060069132A1, “Azolecarboxamide herbicides” (priority 2004, published 2006).

What was measured:
[1] = tested on: lambsquarters; test: Test C pre-/postemergence herbicide test; assay type: in vivo, Chenopodium album
Method in brief: (§1)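 Emerged plants at the 1- to 4-leaf stage (2–18 cm), or freshly planted seeds, received test chemicals in a non-phytotoxic solvent mixture with surfactant. Response was visually scored against controls after 12 to 14 days in the greenhouse, on a 0 (no effect) to 100 (complete control) scale.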

[2] = tested on: morningglory; test: Test C pre-/postemergence herbicide test; assay type: in vivo, Ipomoea coccinea; parameters: key to Plant response rating, Morningglory: 0 = no effect, 100 = complete control
Method in brief: as §1

[3] = tested on: ducksalad; test: Test C flooded paddy test; assay type: in vivo, Heteranthera limosa
[4] = tested on: cocklebur; test: Test C pre-/postemergence herbicide test; assay type: in vivo, Xanthium strumarium
Method in brief: as §1

[5] = tested on: bermudagrass; test: Test C pre-/postemergence herbicide test; assay type: in vivo, Cynodon dactylon
Method in brief: as §1

[6] = tested on: smallflower umbrella sedge; test: Test C flooded paddy test; assay type: in vivo, Cyperus difformis
[7] = tested on: kochia; test: Test C pre-/postemergence herbicide test; assay type: in vivo, Kochia scoparia
Method in brief: as §1

[8] = tested on: woolly cupgrass; test: Test C pre-/postemergence herbicide test; assay type: in vivo, Eriochloa villosa
Method in brief: as §1

[9] = tested on: goosegrass; test: Test C pre-/postemergence herbicide test; assay type: in vivo, Eleusine indica
Method in brief: as §1

[10] = 62 g ai/ha, preemergence, scale 0 to 100
[11] = 125 g ai/ha, scale 0 (no effect) to 100 (complete control), visual, 12 to 14 days, preemergence
[12] = 250 g ai/ha, scale 0-100, preemergence
[13] = 500 g ai/ha, scale 0 to 100 (0 no effect, 100 complete control), visual, 12 to 14 days, preemergence
[14] = Postemergence, 500 g ai/ha, scale 0 to 100
[15] = Postemergence, 250 g ai/ha, scale 0 to 100, 0 no effect, 100 complete control
[16] = postemergence, 125 g ai/ha, scale 0 to 100
[17] = postemergence, 62 g ai/ha, scale 0 to 100
[18] = 125 g ai/ha, scale 0 to 100 (0 no effect, 100 complete control)
[19] = 250 g ai/ha, scale of 0 to 100, 0 is no effect, 100 is complete control
[20] = 500 g ai/ha, visual rating after 12 to 14 days, scale 0 to 100 (0 no effect, 100 complete control)
[21] = Preemergence, 500 g ai/ha, scale 0 to 100, 0 no effect, 100 complete control

CCn1nc(C(C)(C)C)cc1C(=O)Nc1cccc(OC(F)(F)C(F)F)c1 [Compound 333]
Plant response rating, Lambsquarters [1, 10]: 95
Plant response rating, Lambsquarters [1, 11]: 100
Plant response rating, Lambsquarters [1, 12]: 100
Plant response rating, Lambsquarters [1, 13]: 100
Lambsquarters plant response rating [1, 14]: 100
Plant response rating, Lambsquarters [1, 15]: 80
Plant response rating, Lambsquarters [1, 16]: 80
Plant response rating, Lambsquarters [1, 17]: 60
Plant response rating, Morningglory [2, 10]: 0
Plant response rating, Morningglory [2, 11]: 0
Plant response rating, Morningglory [2, 12]: 0
Plant response rating, Morningglory [2, 13]: 10
Morningglory plant response rating [2, 14]: 10
Plant response rating, Morningglory [2, 15]: 10
Plant response rating, Morningglory [2, 16]: 0
Plant response rating, Morningglory [2, 17]: 0
Ducksalad plant response rating ([3]; 62 g ai/ha, scale 0 to 100): 0
Ducksalad plant response rating [3, 18]: 0
Ducksalad plant response rating [3, 19]: 0
Plant response rating, Ducksalad [3, 20]: 25
Plant response rating, Cocklebur [4, 10]: 0
Plant response rating, Cocklebur [4, 11]: 0
Plant response rating, Cocklebur [4, 12]: 0
Plant response rating, Cocklebur [4, 15]: 80
Cocklebur plant response rating [4, 21]: 5
Plant response rating, Cocklebur [4, 16]: 5
Plant response rating, Cocklebur [4, 17]: 0
Plant response rating, Bermudagrass ([5]; 62 g ai/ha, preemergence, scale 0 to 100, 0 no effect, 100 complete control): 40
Plant response rating, Bermudagrass [5, 11]: 85
Plant response rating, Bermudagrass [5, 12]: 100
Bermudagrass plant response rating [5, 14]: 5
Plant response rating, Bermudagrass [5, 15]: 5
Bermudagrass plant response rating [5, 21]: 100
Plant response rating, Bermudagrass [5, 16]: 0
Plant response rating, Bermudagrass [5, 17]: 0
Sedge, Umbrella plant response rating ([6]; 62 g ai/ha, scale 0 to 100): 0
Sedge, Umbrella plant response rating [6, 18]: 15
Sedge, Umbrella plant response rating [6, 19]: 30
Plant response rating, Sedge, Umbrella [6, 20]: 80
Plant response rating, Kochia [7, 10]: 80
Plant response rating, Kochia [7, 11]: 100
Plant response rating, Kochia [7, 12]: 100
Plant response rating, Kochia [7, 13]: 100
Kochia plant response rating [7, 14]: 100
Plant response rating, Kochia [7, 15]: 100
Plant response rating, Kochia [7, 16]: 100
Plant response rating, Kochia [7, 17]: 90
Plant response rating, Cupgrass, Woolly [8, 10]: 0
Plant response rating, Cupgrass, Woolly [8, 11]: 0
Plant response rating, Cupgrass, Woolly [8, 12]: 0
Plant response rating, Cupgrass, Woolly [8, 13]: 30
Cupgrass, Woolly plant response rating [8, 14]: 10
Plant response rating, Cupgrass, Woolly [8, 15]: 5
Plant response rating, Cupgrass, Woolly [8, 16]: 0
Plant response rating, Cupgrass, Woolly [8, 17]: 0
Plant response rating, Goosegrass [9, 10]: 0
Plant response rating, Goosegrass [9, 11]: 30
Plant response rating, Goosegrass [9, 12]: 85
Plant response rating, Goosegrass [9, 13]: 100
Goosegrass plant response rating [9, 14]: 15
Plant response rating, Goosegrass [9, 15]: 10
Plant response rating, Goosegrass [9, 16]: 10
Plant response rating, Goosegrass [9, 17]: 5

CCNC(=O)c1ccc(F)c(NC(=O)C2CN(C(C)(C)C)N=C2CC)c1 (stereo not drawn) [Compound 336, 1-(1,1-dimethylethyl)-3-ethyl-N-[5-[(ethylamino)carbonyl]-2-fluorophenyl]-4,5-dihydro-1H-pyrazole-4-carboxamide]
pest or weed control at 62 g/ha ([1]; Chenopodium album, pre-emergence, 62 g ai/ha, preemergence, scale 0 to 100, read-out: Plant response rating, Lambsquarters): 100%
pest or weed control at 125 g/ha ([1]; Chenopodium album, pre-emergence, 125 g ai/ha, scale 0 (no effect) to 100 (complete control), visual, 12 to 14 days, read-out: Plant response rating, Lambsquarters): 100%
pest or weed control at 250 g/ha ([1]; Chenopodium album, pre-emergence, 250 g ai/ha, scale 0-100, read-out: Plant response rating, Lambsquarters): 100%
pest or weed control at 500 g/ha ([1]; Chenopodium album, pre-emergence, 500 g ai/ha, scale 0 to 100 (0 no effect, 100 complete control), visual, 12 to 14 days, read-out: Plant response rating, Lambsquarters): 100%
pest or weed control at 62 g/ha ([2]; Ipomoea, pre-emergence, 62 g ai/ha, preemergence, scale 0 to 100, read-out: Plant response rating, Morningglory): 5%
pest or weed control at 125 g/ha ([2]; Ipomoea, pre-emergence, 125 g ai/ha, scale 0 (no effect) to 100 (complete control), visual, 12 to 14 days, read-out: Plant response rating, Morningglory): 70%
pest or weed control at 250 g/ha ([2]; Ipomoea, pre-emergence, 250 g ai/ha, scale 0-100, read-out: Plant response rating, Morningglory): 100%
pest or weed control at 500 g/ha ([2]; Ipomoea, pre-emergence, 500 g ai/ha, scale 0 to 100 (0 no effect, 100 complete control), visual, 12 to 14 days, read-out: Plant response rating, Morningglory): 100%
pest or weed control at 62 g/ha ([3]; Heteranthera limosa, 62 g ai/ha, scale 0 to 100, read-out: Ducksalad plant response rating): 45%
pest or weed control at 125 g/ha ([3]; Heteranthera limosa, 125 g ai/ha, scale 0 to 100 (0 no effect, 100 complete control), read-out: Ducksalad plant response rating): 55%
pest or weed control at 250 g/ha ([3]; Heteranthera limosa, 250 g ai/ha, scale of 0 to 100, 0 is no effect, 100 is complete control, read-out: Ducksalad plant response rating): 75%
pest or weed control at 500 g/ha ([3]; Heteranthera limosa, 500 g ai/ha, visual rating after 12 to 14 days, scale 0 to 100 (0 no effect, 100 complete control), read-out: Plant response rating, Ducksalad): 90%
pest or weed control at 62 g/ha ([4]; Xanthium strumarium, pre-emergence, 312 h, 62 g ai/ha, preemergence, scale 0 to 100, read-out: Plant response rating, Cocklebur): 0%
pest or weed control at 125 g/ha ([4]; Xanthium strumarium, pre-emergence, 312 h, 125 g ai/ha, scale 0 (no effect) to 100 (complete control), visual, 12 to 14 days, read-out: Plant response rating, Cocklebur): 5%
pest or weed control at 250 g/ha ([4]; Xanthium strumarium, pre-emergence, 312 h, 250 g ai/ha, scale 0-100, read-out: Plant response rating, Cocklebur): 30%
pest or weed control at 500 g/ha ([4]; Xanthium strumarium, pre-emergence, 312 h, 500 g ai/ha, scale 0 to 100 (0 no effect, 100 complete control), visual, 12 to 14 days, read-out: Plant response rating, Cocklebur): 50%
pest or weed control at 62 g/ha ([5]; Cynodon dactylon, pre-emergence, 312 h, 62 g ai/ha, preemergence, scale 0 to 100, 0 no effect, 100 complete control, read-out: Plant response rating, Bermudagrass): 95%
pest or weed control at 125 g/ha ([5]; Cynodon dactylon, pre-emergence, 312 h, 125 g ai/ha, scale 0 (no effect) to 100 (complete control), visual, 12 to 14 days, read-out: Plant response rating, Bermudagrass): 100%
pest or weed control at 250 g/ha ([5]; Cynodon dactylon, pre-emergence, 312 h, 250 g ai/ha, scale 0-100, read-out: Plant response rating, Bermudagrass): 100%
pest or weed control at 500 g/ha ([5]; Cynodon dactylon, pre-emergence, 312 h, 500 g ai/ha, scale 0 to 100 (0 no effect, 100 complete control), visual, 12 to 14 days, read-out: Plant response rating, Bermudagrass): 100%
pest or weed control at 62 g/ha ([6]; Cyperus difformis, 62 g ai/ha, scale 0 to 100, read-out: Sedge, Umbrella plant response rating): 25%
pest or weed control at 125 g/ha ([6]; Cyperus difformis, 125 g ai/ha, scale 0 to 100 (0 no effect, 100 complete control), read-out: Sedge, Umbrella plant response rating): 80%
pest or weed control at 250 g/ha ([6]; Cyperus difformis, 250 g ai/ha, scale of 0 to 100, 0 is no effect, 100 is complete control, read-out: Sedge, Umbrella plant response rating): 85%
pest or weed control at 500 g/ha ([6]; Cyperus difformis, 500 g ai/ha, visual rating after 12 to 14 days, scale 0 to 100 (0 no effect, 100 complete control), read-out: Plant response rating, Sedge, Umbrella): 90%
pest or weed control at 62 g/ha ([7]; Bassia scoparia, pre-emergence, 62 g ai/ha, preemergence, scale 0 to 100, read-out: Plant response rating, Kochia): 5%
pest or weed control at 125 g/ha ([7]; Bassia scoparia, pre-emergence, 125 g ai/ha, scale 0 (no effect) to 100 (complete control), visual, 12 to 14 days, read-out: Plant response rating, Kochia): 70%
pest or weed control at 250 g/ha ([7]; Bassia scoparia, pre-emergence, 250 g ai/ha, scale 0-100, read-out: Plant response rating, Kochia): 100%
pest or weed control at 500 g/ha ([7]; Bassia scoparia, pre-emergence, 500 g ai/ha, scale 0 to 100 (0 no effect, 100 complete control), visual, 12 to 14 days, read-out: Plant response rating, Kochia): 100%
pest or weed control at 62 g/ha ([8]; Eriochloa villosa, pre-emergence, 312 h, 62 g ai/ha, preemergence, scale 0 to 100, read-out: Plant response rating, Cupgrass, Woolly): 5%
pest or weed control at 125 g/ha ([8]; Eriochloa villosa, pre-emergence, 312 h, 125 g ai/ha, scale 0 (no effect) to 100 (complete control), visual, 12 to 14 days, read-out: Plant response rating, Cupgrass, Woolly): 10%
pest or weed control at 250 g/ha ([8]; Eriochloa villosa, pre-emergence, 312 h, 250 g ai/ha, scale 0-100, read-out: Plant response rating, Cupgrass, Woolly): 60%
pest or weed control at 500 g/ha ([8]; Eriochloa villosa, pre-emergence, 312 h, 500 g ai/ha, scale 0 to 100 (0 no effect, 100 complete control), visual, 12 to 14 days, read-out: Plant response rating, Cupgrass, Woolly): 85%
pest or weed control at 62 g/ha ([9]; Eleusine indica, pre-emergence, 312 h, 62 g ai/ha, preemergence, scale 0 to 100, read-out: Plant response rating, Goosegrass): 95%
pest or weed control at 125 g/ha ([9]; Eleusine indica, pre-emergence, 312 h, 125 g ai/ha, scale 0 (no effect) to 100 (complete control), visual, 12 to 14 days, read-out: Plant response rating, Goosegrass): 100%
pest or weed control at 250 g/ha ([9]; Eleusine indica, pre-emergence, 312 h, 250 g ai/ha, scale 0-100, read-out: Plant response rating, Goosegrass): 100%
pest or weed control at 500 g/ha ([9]; Eleusine indica, pre-emergence, 312 h, 500 g ai/ha, scale 0 to 100 (0 no effect, 100 complete control), visual, 12 to 14 days, read-out: Plant response rating, Goosegrass): 100%
